Series [1] deals with human recombinant FGFR4 catalytic structural domain protein (Homo sapiens (Human), UniProt P22455). As to the kind of experiment: FGFR4 activity inhibition test (HTRF kinase assay). Format: biochemical. To be noted: 90 μM ATP. As to the method: FGFR4 Activity Inhibition Test
The influence of the compound according to the present invention on the activity of fibroblast growth factor receptor 4 (FGFR4) was evaluated by an in vitro kinase assay experiment.
(§1) The experimental method is summarized as follows:
The in vitro activity of FGFR4 was determined by assaying the phosphorylation level of the substrate in the kinase reaction, by means of an HTRF kinase assay kit.
(§2) If the IC50 value of the compound was very low, the initial concentration of the compound could be reduced.
After 60 min, the enzyme reaction was terminated by EDTA in the assay solution, and the phosphorylated products were identified by both the Eu^3+ labeled cage-shaped antibody (donor) and the streptavidin labeled XL665 antibody (receptor) at the same time. […] The inhibition percentage of the compound against FGFR4 activity could be calculated with the following formula: Inhibition percentage=100−100*(signalcompound−signalnegative control)/(signalpositive control−signalnegative control)
The IC50 value of the compound was calculated by the following formula, from 10 concentration points, with XLfit (ID Business Solutions Ltd., UK): Y=Bottom+(Top−Bottom)/(1+10^((Log IC50−X)*slope factor)) Where, Y is the inhibition percentage, Bottom is the bottom plateau of the curve (the bottom plateau of the S-type curve), Top is the top plateau of the curve (the top plateau of the S-type curve), and X is the log value of the compound concentration to be measured.

Series [2] deals with human recombinant FGFR1 catalytic structural domain protein (Homo sapiens (Human), UniProt P11362). In words: FGFR1 activity inhibition test (HTRF kinase assay). The format is biochemical. To be noted: 40 μM ATP. As to the method: FGFR1 Activity Inhibition Test
The influence of the compound according to the present invention on the activity of fibroblast growth factor receptor 1 (FGFR1) was evaluated by an in vitro kinase assay experiment.
as §1
The in vitro activity of FGFR1 was determined by assaying the phosphorylation level of the substrate in the kinase reaction, by means of an HTRF kinase assay kit.
as §2
After 60 min, the enzyme reaction was terminated by EDTA in the assay solution, and the phosphorylated products were identified by both the Eu^3+ labeled cage-shaped antibody (donor) and the streptavidin labeled XL665 antibody (receptor) at the same time. […] The inhibition percentage of the compound against FGFR1 activity could be calculated with the following formula: Inhibition percentage=100−100*(signalcompound−signalnegative control)/(signalpositive control−signalnegative control)
The IC50 value of the compound was calculated by the following formula, from 10 concentration points, with XLfit (ID Business Solutions Ltd., UK): Y=Bottom+(Top−Bottom)/(1+10^((Log IC50−X)*slope factor))
(§3) Where, Y is the inhibition percentage, Bottom is the bottom plateau of the curve (the bottom plateau of the S-type curve), Top is the top plateau of the curve (the top plateau of the S-type curve), and X is the log value of the compound concentration to be measured.

Series [3] has as its system Hep3B cells. In words: Hep3B cell proliferation inhibition test (CellTiter-Glo). Format: cell-based. To be noted: Homo sapiens, 72 h, CTG. As to the method: Hep3B Cell Proliferation Inhibition Test
The influence of the compound according to the present invention on Hep3B cell proliferation was evaluated by a luminescence cell viability test.
as §1
A CellTilter-Glo (CTG) assay kit was used to detect an indicator ATP of active cellular metabolism by means of a unique stable luciferase, and the luminous signal produced in the test was in direct proportion to the count of active cells in the medium, thereby to detect the cell proliferation of Hep3B.
A CellTilter-Glo agent (Promega, G7572) was comprised of a CellTilter-Glo lyophilized powder and a CellTilter-Glo buffer, and the lyophilized powder was dissolved into the buffer in use.
Hep3B cells (ATCC, HB-8064) (cell source: Shanghai Academy of Life Sciences, Chinese Academy of Sciences) were cultured in a DMEM complete medium (Thermofisher, 11995073) containing a 10% FBS (GBICO, 10099-141) and 100 units/ml mycillin mixed solution (Thermofisher, 15140122). When the cells coverage reached 80-90% in the culture vessel, after the cells were digested and blown about with 0.25% pancreatin (containing EDTA) (Thermofisher, 25200056), they were planted in a white 384 well plate (Thermofisher, 164610), with 1000 cells in each well (27 μl of a DMEM complete medium), and then the 384 well plate was placed into an incubator at 37° C. and 5% CO2 and cultured overnight (18-20 h). The compound was dissolved and diluted in 100% DMSO to 100 μM, then 4-fold-series diluted with DMSO to a minimum concentration of 0.0061 μM, and each concentration point was 50-fold diluted with the FBS-free DMEM medium. If the IC50 value of the compound was very low, the initial concentration of the compound could be reduced. […] This 384 well plate was placed into an incubator at 37° C. and 5% CO2 for further culture, taken out after 72 h, and stood at room temperature for 30 min. The CTG agent was also taken out and balanced to room temperature. 15 μl of the CTG agent was added into each well, and placed onto a shaker to be gently shaken for 3 min to ensure sufficient cell lysis. After 10 min of standing to allow the luminescence signal to be stable, the luminescence signal was read with EnVision (Perkin Elmer).
The inhibition percentage of the compound against Hep3B cell proliferation could be calculated with the following formula: Inhibition percentage=100−100*(signalcompound−signalnegative control)/(signalpositive control−signalnegative control)
The IC50 value of the compound was calculated by the following formula, from 8 concentration points, with XLfit (ID Business Solutions Ltd., UK): Y=Bottom+(Top−Bottom)/(1+10^((Log IC50−X)*slope factor))
as §3

In series [4] the test system is FGF19/FGFR4-overexpressed Hep3B hepatocellular carcinoma (HCC) xenograft tumors. The format is in vivo. To be noted: for TGI value / mean tumor size: day 18. As to the method:
Data points represent group mean, error bars represent standard error of the mean (SEM). *P<0.05, **P<0.01, ***P<0.001, ****P<0.0001, NS P>0.05 vs vehicle group.
The relative change of body weights (% RCBW) was calculated based on the following formula: RCBW (%)=(BWi−BW0)/BW0×100%, BWi was the bodyweight on the day of dosing and BW0 was the bodyweight on the first day of administration. Data points represent percent group mean change in BW. Error bars represent standard error of the mean (SEM).
Dosing was initiated on day 0 and effects on tumor growth were evaluated by measuring percent tumor growth inhibition (TGI) at the end of the study. Tolerability was assessed by body weight loss, lethality, and clinical signs of adverse treatment-related side effects. Tumor volumes and body weights were measured twice per week in the administration period. The percentage of TGI was determined on day 18 of the study. The difference between the mean values of tumor volume in treatment and vehicle groups was analyzed for significance using one-way ANOVA (followed by Dennett's test) at each time point and a P<0.05 was considered to be statistically significant.

The mark [5] stands for this setting: 100 mg/kg BID for 18 days, oral.

Structures are written as SMILES. Like-named read-outs stand apart in the source and are kept apart here.

Sequence of human recombinant FGFR1 catalytic structural domain protein (P11362 other isoform, or with tags, fused parts or gaps): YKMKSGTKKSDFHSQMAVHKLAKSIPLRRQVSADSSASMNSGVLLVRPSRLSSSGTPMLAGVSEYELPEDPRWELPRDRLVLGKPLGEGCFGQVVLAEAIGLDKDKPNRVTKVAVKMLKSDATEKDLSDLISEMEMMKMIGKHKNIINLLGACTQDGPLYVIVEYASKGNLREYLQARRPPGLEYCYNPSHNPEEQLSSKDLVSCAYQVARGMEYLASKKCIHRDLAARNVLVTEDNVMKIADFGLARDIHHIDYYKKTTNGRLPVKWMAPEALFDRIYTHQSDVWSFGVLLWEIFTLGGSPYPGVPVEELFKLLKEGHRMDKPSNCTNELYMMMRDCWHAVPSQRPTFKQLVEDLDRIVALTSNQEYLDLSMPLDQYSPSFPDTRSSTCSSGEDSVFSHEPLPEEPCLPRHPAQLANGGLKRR
Sequence of human recombinant FGFR4 catalytic structural domain protein (P22455 460-802): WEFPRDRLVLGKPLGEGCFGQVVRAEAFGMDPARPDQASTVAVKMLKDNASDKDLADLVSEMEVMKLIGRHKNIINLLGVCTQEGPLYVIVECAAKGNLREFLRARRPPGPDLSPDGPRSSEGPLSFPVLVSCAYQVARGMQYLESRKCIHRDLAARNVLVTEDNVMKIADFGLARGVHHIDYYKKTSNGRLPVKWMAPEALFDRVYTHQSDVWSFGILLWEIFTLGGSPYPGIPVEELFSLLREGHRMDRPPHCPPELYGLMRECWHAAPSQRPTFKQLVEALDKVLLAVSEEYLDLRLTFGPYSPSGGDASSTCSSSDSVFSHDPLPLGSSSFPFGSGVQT

As to `COCCNc1cc(NC(=O)N(C)c2nccc(C=O)n2)ncc1C#N` [Compound 8, 3-(5-cyano-4-((2-methoxyethyl)amino)pyrid-2-yl)-1-(4-formylpyrimidin-2-yl)-1-methylurea], the results for the concentration for half-maximal inhibition (IC50) in series [1] and in series [2] were 100 to 1000 nM and over 1000 nM, respectively.
`CC(C)Oc1cc(NC(=O)N(C)c2cccc(C=O)n2)ncc1C#N` [Compound 6, 3-(5-cyano-4-isopropoxypyrid-2-yl)-1-(6-formylpyrid-2-yl)-1-methylurea]: the IC50 is under 10 nM in series [1] and over 1000 nM in series [2].
Turning to `CN1CCN(Cc2ccc(N(C)C(=O)Nc3cc(Cl)c(C#N)cn3)nc2C=O)C(=O)C1` [Compound 17, 3-(4-chloro-5-cyanopyrid-2-yl)-1-(6-formyl-5-((4-methyl-2-carbonylpiperazin-1-yl)methyl)pyrid-2-yl)-1-methyl urea], the IC50 in series [1] fell in the range of 100 to 1000 nM.
On to `CN(C(=O)Nc1cc(Cl)ncn1)c1cccc(C=O)n1` [Compound 2, 3-(6-chloropyrimidin-4-yl)-1-(6-formylpyrid-2-yl)-1-methylurea], for which the values for the IC50 in series [1] and in series [2] were 100 to 1000 nM and over 1000 nM, respectively.
In the case of `COCCNc1cc(NC(=O)N(C)c2cccc(C=O)n2)ncc1C#N` [Compound 1, 3-(5-cyano-4-((2-methoxyethyl)amino)pyrid-2-yl)-1-(6-formylpyrid-2-yl)-1-methyl urea], the IC50 in series [2] is over 1000 nM.
Regarding `CC(C)Nc1cc(NC(=O)N(C)c2cccc(C=O)n2)ncc1C#N` [Compound 5, 3-(5-cyano-4-(isopropylamino)pyrid-2-yl)-1-(6-formylpyrid-2-yl)-1-methylurea], the IC50 in series [1] is under 10 nM; in series [2], over 1000 nM.
`CC(C)Nc1cc(NC(=O)N(C)c2ccc(CN3CCOCC3=O)c(C=O)n2)ncc1C#N` [Compound 10, 3-(5-cyano-4-(isopropylamino)pyrid-2-yl)-1-(6-formyl-5-((3-carbonylmorpholino)methyl)pyrid-2-yl)-1-methylurea] gave an IC50 in series [3] of 50 to 100 nM.
Same read-out and setting: next, `CC(C)Nc1cc(NC(=O)N(C)c2ccc(CN3CCN(C)CC3=O)c(C=O)n2)ncc1C#N` [Compound 16, 3-(5-cyano-4-(isopropylamino)pyrid-2-yl)-1-(6-formyl-5-((4-methyl-2-carbonylpiperazin-1-yl)methyl)pyrid-2-yl)-1-methylurea]: under 50 nM; `CC(C)Oc1cc(NC(=O)N(C)c2ccc(CN3CCN(C)CC3=O)c(C=O)n2)ncc1C#N` [Compound 19, 3-(5-cyano-4-isopropoxypyrid-2-yl)-1-(6-formyl-5-((4-methyl-2-carbonylpiperazin-1-yl)methyl)pyrid-2-yl)-1-methylurea]: 50 to 100 nM.
For `CNC(=O)c1cc(Oc2ccc(NC(=O)Nc3ccc(Cl)c(C(F)(F)F)c3)cc2)ccn1` [sorafenib, reference compound], in series [4] (40 mg/kg QD, oral), the “antitumor activity (in words)” value is recorded as “some antitumor activity”.
Regarding `COC[C@@H](C)Oc1cc(NC(=O)N(C)c2ccc(CN3CCN(C)CC3=O)c(C=O)n2)ncc1C#N` [Compound 18, (R)-3-(5-cyano-4-((1-methoxyprop-2-yl)oxo)pyrid-2-yl)-1-(6-formyl-5-((4-methyl-2-carbonylpiperazin-1-yl)methyl)pyrid-2-yl)-1-methylurea], the IC50 in series [3] is under 50 nM. Also, the TGI value in series [4] (10 mg/kg BID for 18 days, oral) was 96.4%; in series [4] (30 mg/kg BID for 18 days, oral), 108.3%; in series [4] (60 mg/kg QD for 18 days, oral), 104.4%; in series [4] (setting [5]), 109.2%. The mean tumor size in series [4] (10 mg/kg BID for 18 days, oral) was 230 mm^3; in series [4] (30 mg/kg BID for 18 days, oral), 16 mm^3; in series [4] (60 mg/kg QD for 18 days, oral), 86 mm^3; in series [4] (setting [5]), 0 mm^3. Moreover, the “tolerability by tumor-bearing animals” value in series [4] (all dose levels) is on record as “well-tolerated”. For the same compound, in series [4] (all groups), the “body weight loss during the treatment” value is recorded as “didn't exhibit significant body weight loss”.
On to `COCCOc1cc(NC(=O)N(C)c2cccc(C=O)n2)ncc1C#N` [Compound 7, 3-(5-cyano-4-(2-methoxyethoxy)pyrid-2-yl)-1-(6-formylpyrid-2-yl)-1-methylurea], for which the IC50 is under 10 nM in series [1] and over 1000 nM in series [2].
With `COCCNc1cc(NC(=O)N(C)c2ccc(CN3CCOCC3=O)c(C=O)n2)ncc1C#N` [Compound 9, 3-(5-cyano-4-((2-methoxyethyl)amino)pyrid-2-yl)-1-(6-formyl-5-((3-carbonylmorpholino)methyl)pyrid-2-yl)-1-methylurea], the IC50 in series [3] was under 50 nM.
Regarding `COCCOc1cc(NC(=O)N(C)c2ccc(CN3CCOCC3=O)c(C=O)n2)ncc1C#N` [Compound 12], the IC50 in series [3] was under 50 nM.
In the case of `CN(C(=O)Nc1ccc(C#N)cn1)c1cccc(C=O)n1` [Compound 3, 3-(5-cyanopyrid-2-yl)-1-(6-formylpyrid-2-yl)-1-methylurea], the results for the IC50 in series [1] and in series [2] were 10 to 100 nM and over 1000 nM, respectively.

Values taken from patent US10590109B2, “Heterocyclic compounds used as FGFR inhibitors” (Nanjing InnoCare Pharma Tech Co., Ltd., priority 2016, dated 2020).
